In brackets after ≈: the same amount, converted by molar mass. Read-outs that look alike come from different tables or passages of the source.
How the values were obtained:
[1] = test system: human coronavirus HCoV-229E; assay: organism not typed; type: cell-based; conditions: HEL 299 cells, 100 CCID50, MTS; read-out: Antiviral Activity (EC50/μM) HCoV 229E HEL 299
[2] = test system: human coronavirus HCoV-OC43; assay: microbe, parasite or virus in culture; type: cell-based; conditions: Betacoronavirus 1, OC43; HEL 299 cells, 100 CCID50, MTS; read-out: Antiviral Activity (EC50/μM) HCoV OC43 HEL 299
[3] = test system: human coronavirus HCoV-NL63; assay: Antiviral CPE reduction assay, HCoV-NL63 in Huh-7; type: cell-based; conditions: Huh-7 cells, 100 CCID50, MTS
[4] = test system: influenza A/H1N1 (A/Ned/378/05); assay: Antiviral CPE reduction assay, influenza A/H1N1 in MDCK; type: cell-based; conditions: Influenza A virus, MDCK cells, 100 CCID50, MTS
[5] = test system: influenza A/H3N2 (A/HK/7/87); assay: Antiviral CPE reduction assay, influenza A/H3N2 in MDCK; type: cell-based; conditions: Influenza A virus, MDCK cells, 100 CCID50, MTS
[6] = test system: influenza B (B/Ned/537/05); assay: Antiviral CPE reduction assay, influenza B in MDCK; type: cell-based; conditions: Influenza B virus; MDCK cells, 100 CCID50, MTS
[7] = test system: respiratory syncytial virus A (Long); assay: Antiviral CPE reduction assay, RSV A in HEL 299; type: cell-based; conditions: human respiratory syncytial virus; HEL 299 cells, 100 CCID50, MTS
[8] = test system: herpes simplex virus-1 (HSV-1 KOS); assay: Antiviral CPE reduction assay, HSV-1 KOS in HEL 299; type: cell-based; conditions: Human alphaherpesvirus 1; HEL 299 cells, 100 CCID50, MTS
[9] = test system: yellow fever virus (YFV 17D); assay: microbe, parasite or virus in culture; type: cell-based; conditions: Huh-7, read-out: Antiviral Activity (EC50/μM) YFV 17D Huh-7
[10] = test system: Zika virus (Mr776); assay: Antiviral CPE reduction assay, Zika virus in Huh-7; type: cell-based; conditions: Huh-7 cells, 100 CCID50, MTS
[11] = test system: sindbis virus; assay: Antiviral CPE reduction assay, Sindbis virus in Huh-7; type: cell-based; conditions: Huh-7 cells, 100 CCID50, MTS
[12] = test system: LN-229, glioblastoma; assay: Proliferation assay (MTS, 72 h), LN-229; type: cell-based, human; conditions: Homo sapiens, LN-229
Procedure, shortened: (§1)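 MTS conversion after 72 h of compound exposure served as the proliferation read-out. Cells grew in medium containing 10% fetal bovine serum and received seven concentrations spanning 100 to 0.006 µM, and each compound was run in two independent experiments.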

[13] = test system: Capan-1, pancreatic adenocarcinoma; assay: Proliferation assay (MTS, 72 h), Capan-1; type: cell-based, human; conditions: Homo sapiens, CAPAN-1
Procedure, shortened: as §1

[14] = test system: HCT-116, colorectal carcinoma; assay: Proliferation assay (MTS, 72 h), HCT-116; type: cell-based, human; conditions: Homo sapiens, HCT-116
Procedure, shortened: (§2)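 Seven-point dilution, 100–0.006 µM; 72 h; MTS viability read-out; 10% FBS medium; n = 2 independent experiments. HCT-116 adhered overnight first, suspension lines seeded onto pre-dispensed compound.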

[15] = test system: NCI-H460, lung carcinoma; assay: Proliferation assay (MTS, 72 h), NCI-H460; type: cell-based, human; conditions: Homo sapiens, NCI-H460
Procedure, shortened: as §1

[16] = test system: DND-41, acute lymphoblastic leukemia; assay: Proliferation assay (MTS, 72 h), DND-41; type: cell-based, human; conditions: Homo sapiens, DND41
Procedure, shortened: as §2

[17] = test system: HL-60, acute myeloid leukemia; assay: Proliferation assay (MTS, 72 h), HL-60; type: cell-based, human; conditions: Homo sapiens, HL-60
Procedure, shortened: as §2

[18] = test system: K-562, chronic myeloid leukemia; assay: Proliferation assay (MTS, 72 h), K-562; type: cell-based, human; conditions: Homo sapiens, K562
Procedure, shortened: as §1

[19] = test system: Z-138, non-Hodgkin lymphoma; assay: Proliferation assay (MTS, 72 h), Z-138; type: cell-based, human; conditions: Homo sapiens, Z-138
Procedure, shortened: as §2

[20] = test system: human cancer cell lines; assay: Proliferation assay (MTS, 72 h), range over several cancer cell lines; type: cell-based
Source text: Human cancer cells used in this manuscript, namely Capan-1, HCT-116, NCI-H460, LN-229, HL-60, K-562, and Z-138, were acquired from the American Type Culture Collection (ATCC, Manassas, VA, USA), while the DND-41 cell line was purchased from the Deutsche Sammlung von Mikroorganismen und Zellkulturen (DSMZ Leibniz-Institut, Braunschweig, Germany). Culture media were purchased from Gibco Life Technologies, Merelbeke, Belgium, and supplemented with 10% fetal bovine serum (HyClone, Cytiva, Marlborough, MA, USA). Vincristine and docetaxel, which were used as the reference inhibitors, were purchased from Selleckchem (Munich, Germany). Stock solutions were prepared in DMSO.
Adherent cell lines LN-229, HCT-116, and NCI-H460 and Capan-1 cells were seeded at a density between 500 and 1500 cells per well, in 384-well tissue culture plates (Greiner, Kremsmünster, Austria). […]
Suspension cell lines HL-60, K-562, Z-138, and DND-41 were seeded at densities ranging from 2500 to 5500 cells per well in 384-well culture plates containing the test compounds at the same concentration points. The cells were incubated for 72 h with the compounds and were then analyzed using the CellTiter 96® AQueous One Solution Cell Proliferation Assay (MTS) reagent (Promega, Madison, WI, USA) according to the manufacturer’s instructions. […]

[21] = in vitro; conditions: human
[22] = in vitro; conditions: human; remark: listed apart in the source
[23] = in vitro; conditions: dog
[24] = test system: S. aureus ATCC 29213; assay: Broth microdilution MIC, S. aureus; type: cell-based; conditions: Staphylococcus aureus, ATCC29213; read-out: MIC against S. aureus
Experimental: (§3) Selected bacterial strains were Gram-negative E. coli, K. pneumoniae, A. baumannii and P. aeruginosa and Gram-positive S. aureus, S. pneumoniae, and E. faecalis. The synthesized compounds were prepared as 10 mM DMSO solutions and tested in a final concentration range of 0.2–100 µM [39].
(§4) Broth microdilution testing was performed according to CLSI (Clinical Laboratory Standards Institute) guidelines. The MIC (minimal inhibitory concentration) value was defined as the last tested concentration of the compound at which there was no visible growth of bacteria. Inoculums for each microorganism were prepared using the direct colony suspension method, where broth solutions that achieved turbidity equivalent to 0.5 McFarland standard were additionally diluted 100× with Ca adjusted MH media (Becton Dickinson, Franklin Lakes, NJ, USA). All of the test plates were incubated for 16–24 h at 37 °C.
(§5) Methods for dilution of antimicrobial susceptibility tests for bacteria that grow aerobically followed M07, 11th edition, 2018, and Clinical and Laboratory Standards Institute (CLSI) guidelines. Performance standards for antimicrobial susceptibility testing followed the M100, 28th edition, 2018.

[25] = test system: E. faecalis ATCC 29212; assay: Broth microdilution MIC, E. faecalis; type: cell-based; conditions: Enterococcus faecalis, ATCC29212; read-out: MIC against E. faecalis
Experimental: as §3, §4, §5

[26] = test system: E. coli efflux del; assay: microbe, parasite or virus in culture; type: cell-based; conditions: for MIC E. coli efflux del: Table 2 prints no unit, μM for compounds, antibiotics tested at 0.125–64 µg/mL
Experimental: as §3, §4, §5

[27] = test system: K. pneumoniae ATCC 700603; assay: Broth microdilution MIC, K. pneumoniae; type: cell-based; conditions: Klebsiella pneumoniae, ATCC700603; read-out: MIC against K. pneumoniae
Experimental: as §3, §4, §5

SMILES	EC50 [1] [µM]	EC50 [2] [µM]	EC50 [3] [µM]	EC50 [4] [µM]	EC50 [5] [µM]	EC50 [6] [µM]	EC50 [7] [µM]	EC50 [8] [µM]	EC50 [9] [µM]	EC50 [10] [µM]	EC50 [11] [µM]	IC50 [12] [µM]	IC50 [13] [µM]	IC50 [14] [µM]	IC50 [15] [µM]	IC50 [16] [µM]	IC50 [17] [µM]	IC50 [18] [µM]	IC50 [19] [µM]	melting point [°C]	other results
CCN(CC)c1ccc(/C=N/c2nc3ccc(C#N)cc3n2CC(C)C)c(O)c1 [Compound 31, (E)-2-((4-(Diethylamino)-2-hydroxybenzylidene)amino)-1-isobutyl-1H-benzo[d]imidazole-6-carbonitrile]	> 100	> 100	32	> 100	> 100	> 100	> 100	> 100	> 100	> 100	> 100	> 100	32.8	> 100	> 100	34.4	47.6	> 100	> 100	205 to 208	IC50 ([20]; three cancer cell types, read-out: IC50, range over three cancer cell types): 32.8 to 47.6 µM; CC50 [21]: > 100 µM; CC50 [22]: 85.7 µM; CC50 [23]: 1.3 µM
CCN(CC)c1ccc(/C=N/c2nc3ccccc3n2-c2ccccc2)c(O)c1 [Compound 40, (E)-5-(Diethylamino)-2-(((1-phenyl-1H-benzo[d]imidazol-2-yl)imino)methyl)phenol]	–	–	–	–	–	–	–	–	–	–	–	21.5	2.4	9.6	43.7	2.2	1.1	12.9	4.4	197 to 201	IC50 ([20]; Capan-1, DND-41, HL-60 and Z-138 cancer cell lines, read-out: IC50, range over several cancer cell lines): 1.1 to 4.4 µM
CCCCCCn1c(/N=C/c2ccc(N(C)C)cc2)nc2ccccc21 [Compound 42, (E)-4-(((1-Hexyl-1H-benzo[d]imidazol-2-yl)imino)methyl)-N,N-dimethylaniline]	34.7	> 100	> 100	> 100	> 100	> 100	> 100	> 100	> 100	> 100	> 100	> 100	> 100	> 100	64.4	> 100	73.2	90.8	> 100	231 to 234	MIC [24]: 32 µM (≈ 11.2 µg/mL); MIC [25]: 32 µM (≈ 11.2 µg/mL); MIC E. coli efflux del [26]: 64; CC50 [23]: 34.6 µM
CCCCCCn1c(N)nc2ccccc21 [Compound 23, 2-Amino-1-hexylbenzimidazole]	–	–	–	–	–	–	–	–	–	–	–	45.2	46.5	57.4	60.2	47.7	44.9	46.7	44.7	–	MIC [24]: 16 µM (≈ 3.48 µg/mL); MIC [25]: 32 µM (≈ 6.95 µg/mL); MIC ([26]; Escherichia coli, read-out: MIC against E. coli efflux dell): 32 µM (≈ 6.95 µg/mL); MIC E. coli efflux del [26]: 32; MIC [27]: 32 µM (≈ 6.95 µg/mL)

From PMC10180076, “Novel Biologically Active N-Substituted Benzimidazole Derived Schiff Bases: Design, Synthesis, and Biological Evaluation” (Molecules, 2023)
